Read-outs that look alike come from different tables or passages of the source. Where no end group is shown, it is not given here.
Assays:
CXCR4 [1] = target: T1, CXCR4 (Homo sapiens, UniProt P61073); test: Calcium mobilization assay (FLIPR Tetra) in U87.CD4.CXCR4 cells; assay type: cell-based; settings: for IC50: 6.25 nM CXCL12, mean ± SEM, read-out: IC50 Calcium signaling (CXCL12-induced); for agonist activity on intracellular calcium flux: in absence of CXCL12
Method: U87.CD4.CXCR4 cells were seeded at 2x10^4 cells per well in gelatin-coated black-walled 96-well plates [0.1% gelatin in DPBS, incubated at RT for two hours and washed once with DPBS] and incubated at 37°C and 5% CO2 overnight. […] Fluo-2 AM loaded cells were washed with assay buffer before being incubated in the FLIPR Tetra system at 37°C for five minutes. At the start of the kinetic measurement, compounds were added to the cell plate by the internal robotic system followed by an incubation period of 10 minutes during which changes in the intracellular calcium level were continuously measured by the FLIPR Tetra. […] Each condition was measured in triplicate and repeated several times as further indicated (see Results).

HIV-1 NL4-3 (X4) [2] = test: microbe, parasite or virus in culture; assay type: cell-based; settings: MT-4 cells, four days post infection, MTS, mean ± SEM, read-out: IC50 HIV-1 (X4) NL4-3 replication, MT-4 cells
Method: The anti-HIV replication assays in MT-4 cells and PHA-stimulated PBMCs have been described previously. The HIV-1 T-tropic molecular clone NL4-3 (X4) was obtained from the National Institute of Allergy and Infectious Disease (NIAID) AIDS reagent program (Bethesda, MD, USA). Briefly, 5x10^4 MT-4 cells (in cell culture medium) were treated with different concentrations of compound at 37°C for 30 minutes. Afterwards, a 50% tissue culture infectious dose of the NL4-3 viral stock was added to the cell-compound mixtures. Four days post infection, the cytopathic effect was evaluated microscopically and cell viability was assessed with the MTS method, as described above.
In the antiviral assays, each condition was tested in duplicate.

CXCR4 [3] = target: T1, CXCR4; test: CXCL12^AF647 binding assay on Jurkat cells; settings: Jurkat cells, 2.9 nM CXCL12^AF647, mean ± SEM; read-out: IC50 CXCL12-CXCR4 binding interaction
Method: In brief, Jurkat cells were washed twice in assay buffer [Hank’s Balanced Salt Solution (HBSS; Thermo Fisher Scientific), 20 mM HEPES buffer (Thermo Fisher Scientific), 0.2% bovine serum albumin (Sigma-Aldrich), pH 7.4]. […] Afterwards, cells were washed twice in assay buffer and subsequently fixed in 1% paraformaldehyde in Dulbecco’s phosphate buffered saline (DPBS). Samples were analyzed with the FACSArray flow cytometer (Becton Dickinson, NJ, USA). Data were further analyzed with the FlowJo Software (Ashland, Oregon, USA).

CXCR4 [4] = target: T1, CXCR4; test: CXCR4 internalization assay in SUP-T1 cells; assay type: cell-based; parameters: CXCR4 receptors endogenously expressed on SUP-T1 cells; endogenous in cells; host or cells: SUP-T1 (ATCC); settings: for induction of CXCR4 internalization (agonistic effect): in absence of CXCL12, data not shown; for IC50: SUP-T1 cells, 6.25 nM CXCL12, 37°C 30 minutes, mean ± SEM
Method: T-lymphoblastic SUP-T1 cells were washed twice in DPBS containing 2% FBS. Afterwards, cells were first incubated with the PE-labeled rat anti-human CXCR4 mAb (clone 1D9; 2 μg/ml in DPBS/2% FBS; BD Pharmingen) on ice for 45 minutes. […] SUP-T1 cells were subsequently washed once with ice cold DPBS and twice with ice cold assay buffer (see above) before being treated with test compound on ice for 15 minutes. […] Samples were immediately analyzed with the FACSCalibur flow cytometer (Becton Dickinson) whereby the measured fluorescence corresponds to the amount of […] CXCR4 receptors. Data were further analyzed with the FlowJo software.

[5] = tested on: CXCR4-positive Jurkat cells; test: cells; assay type: cell-based, human; settings: read-out: IC50 Chemotaxis
Method: Jurkat cells were washed twice in assay buffer (see above), dispensed into a 96-well plate (5x10^5 cells per well) containing serial dilutions of compounds (in assay buffer) and incubated at RT in the dark for 10 minutes. […] Suspensions of 1.87x10^4 cells were transferred to the chemotaxis insert plate. […] After removal of the insert plate, migrated cells were centrifuged and resuspended in DPBS containing flow cytometry cell counting beads ([…] Fluorescent Particles; Gentaur, London, UK). Both migrated cells and particles were counted by flow cytometry (FACSCanto II; Becton Dickinson). Each compound concentration was tested in triplicate. Data were analyzed using the FlowJo software and the total number of migrated cells was calculated, according to the counted and total number of beads present in the sample.

HIV-1 NL4-3 (X4) [6] = test: microbe, parasite or virus in culture; assay type: cell-based; settings: PHA-stimulated PBMCs, ten days post infection, p24 Ag ELISA, mean ± SEM, read-out: IC50 HIV-1 (X4) NL4-3 replication, PHA-stimulated PBMCs
Method: PHA-stimulated PBMCs at 5x10^5 cells per sample, pre-incubated with test compounds dissolved in cell culture medium containing IL-2 (2 ng/ml; […] After three days, fresh culture medium with IL-2 was added. Ten days post infection cell supernatant was collected for HIV-1 p24 core antigen enzyme-linked immunosorbent assay (ELISA; Perkin Elmer, Boston, MA, USA) according to the manufacturer’s protocol. In the antiviral assays, each condition was tested in duplicate.

CXCR7 = target: T2, CXCR7 (Homo sapiens, UniProt P25106); test: CXCL12 binding on CXCR7-transfected U87 cells (U87.CD4.CXCR7); settings: data not shown
T2 construct: expressed in transfected cells; host or cells: U87.CD4 cells transfected with pTEJ-8 plasmid carrying human CXCR7 cDNA
T2 sequence (P25106 whole entry): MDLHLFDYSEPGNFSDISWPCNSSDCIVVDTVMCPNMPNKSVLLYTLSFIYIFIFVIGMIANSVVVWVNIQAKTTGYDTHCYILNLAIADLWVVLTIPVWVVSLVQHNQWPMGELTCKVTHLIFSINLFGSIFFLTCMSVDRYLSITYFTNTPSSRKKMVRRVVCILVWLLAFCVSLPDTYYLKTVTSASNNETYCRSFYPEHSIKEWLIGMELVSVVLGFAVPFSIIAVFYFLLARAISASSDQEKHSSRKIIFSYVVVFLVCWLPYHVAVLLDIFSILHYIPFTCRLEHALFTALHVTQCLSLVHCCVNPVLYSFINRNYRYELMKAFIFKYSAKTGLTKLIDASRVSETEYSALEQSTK

[7] = Jurkat cells, 6.25 nM CXCL12, two hours, mean ± SEM

T1 sequence (P61073 whole entry): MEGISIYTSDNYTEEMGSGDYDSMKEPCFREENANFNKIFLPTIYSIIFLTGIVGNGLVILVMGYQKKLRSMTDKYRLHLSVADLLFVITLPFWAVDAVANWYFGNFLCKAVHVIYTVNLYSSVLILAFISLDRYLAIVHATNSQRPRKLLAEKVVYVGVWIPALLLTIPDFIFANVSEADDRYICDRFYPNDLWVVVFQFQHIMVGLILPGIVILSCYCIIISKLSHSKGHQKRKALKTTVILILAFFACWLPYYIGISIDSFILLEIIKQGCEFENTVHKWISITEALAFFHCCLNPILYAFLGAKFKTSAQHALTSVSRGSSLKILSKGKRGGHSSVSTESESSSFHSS

Compound | IC50 (HIV-1 NL4-3 (X4) [2]) [nM] | IC50 (CXCR4 [3]) [nM] | induction of CXCR4 internalization (agonistic effect) (CXCR4 [4]; 100 μM) | IC50 (CXCR4 [4]) [nM] | IC50 [5, 7] [nM] | IC50 (HIV-1 NL4-3 (X4) [6]) [nM] | IC50 (CXCR4 [1]; U87.CD4.CXCR4 cells) [nM] | induction of CXCR4 internalization (agonistic effect) (CXCR4 [4]; 50 μM) | other results
CXCL12: Recombinant human CXCL12, endogenous chemokine ligand of CXCR4 |  |  |  |  |  |  |  |  | EC90 (CXCR4 [1]; U87.CD4.CXCR4 cells, CXCL12 alone, read-out: EC90 increase of the calcium concentration): 10.9 nM
CN(C)CCN(CCN(C)C)CCN(C)C [Me6TREN] | > 100000 | 51900 | absence of an agonistic effect | > 100000 | > 100000 | > 100000 | > 100000 |  | 
c1ccc(CNCc2ccc(CN3CCCNCCNCCCNCC3)cc2)nc1 [AMD3465] | 21.8 ± 10.1 | 2.1 ± 0.24 |  | 67.3 ± 11.3 | 116 ± 15.2 | 27.2 ± 8.7 | 53.4 ± 24.3 | absence of an agonistic effect | 
KGVSLSYRKRYSLSVGK-NH2 [CTCE-9908] |  |  | absence of an agonistic effect |  |  |  |  |  | agonist activity on intracellular calcium flux (CXCR4 [1]; 20 μM): this activity was lost; agonist activity on intracellular calcium flux (CXCR4 [1]; 100 μM): very weak agonist activity
NCCCCN(Cc1nc2ccccc2[nH]1)[C@H]1CCCc2cccnc21 [AMD11070] |  |  |  |  |  |  |  | absence of an agonistic effect | IC50 (HIV-1 NL4-3 (X4) [2]; Human immunodeficiency virus 1, NL43, MT4, 96 h): 11.9 ± 4.6 nM; inhibition of CXCL12 binding on CXCR7 (CXCR7): reduced CXCL12 binding on CXCR7 in the lower micromolar range; IC50 ([5]; Homo sapiens, Jurkat, 2 h): 74.9 ± 17.7 nM; IC50 (HIV-1 NL4-3 (X4) [6]; Human immunodeficiency virus 1, NL43, PBMC, 240 h): 26.4 ± 6.1 nM
